The conditions of series [1]: guinea pig, in vivo.
For series [2] the following is noted: dog, in vivo.
The conditions of series [3]: rat, in vivo.
The conditions of series [4]: oral administration; cited from earlier work.
Another series concerns substance P. The note with it: rat, in vivo.
Series [5] concerns calcitonin gene-related peptide (CGRP). Particulars: rat, in vivo.
Experimental: (§1) Lumbar intrathecal injections--rats: Rats (250-350 gm) were prepared with chronic intrathecal catheters placed in the lumbar intrathecal space. They received intrathecal administration of 15 μl of 25% CDEX. […] At 7 days, the levels of neuropeptides substance P and calcitonin gene-related peptide (CGRP) were measured after extraction of tissue, using radioimmunoassays.

Experimental for substance P: as §1

Take 2-hydroxypropyl-β-cyclodextrin [CDEX]: in series [1], the “acute behavioral signs of agitation (irritation)” value was “no acute behavioral signs of agitation”; the “motor function (placing, stepping and righting reflexes or ambulatory tests)” value is given as “no changes”; the urine staining result is “No evidence of urine staining”. In series [2], the bladder function entry was “no effect”, the heart rate entry is on record as “no effect”, the skin twitch response entry is listed as “no effect” and the toxicity entry was “lack of toxicity”. In series [3], the EEG activity result is listed as “no effect” and the general motor behavior entry is given as “no effect”.

With `CS(=O)(=O)OCCCCOS(C)(=O)=O` [Busulfan, busulfan], in series [4], the bone marrow depression entry is “severe bone marrow depression”.

With `C[S+](C)[O-]` [dimethyl sulfoxide], the “tissue level of substance P” value with substance P is on record as “significant reduction”. Further, in series [5], the “tissue level of CGRP” value is reported as “significant reduction”.
